Where two headings read alike, the source gives them in different places. Marks after values point to notes of the source that are not given here.
What was measured:
[1] = test system: Control maize plants (EPSPS selectable marker gene, no HPPD variant); experiment: Greenhouse trial, maize T0 plants, leaf area damage; assay type: in vivo; details: for number of events, herbicide tolerance class 0 (41%-100% damaged leaf area) / number of events, herbicide tolerance class 1 (16%-40% damaged leaf area) / number of events, herbicide tolerance class 2 (6%-15% damaged leaf area) / number of events, herbicide tolerance class 3 (0%-5% damaged leaf area): maize Control
Description: (§1) Regenerated T0 events from tissue culture were transplanted into two inch square pots with synthetic soil (Fafard® Mix) and controlled-released fertilizer (Haifa Multicote™; polymer-coated controlled-release fertilizer, NPK Pro 18-6-12+Micronutrients) and cultivated in the greenhouse (GH) under supplementary high pressure sodium light for 12 days at a maximum of 30° C. during the day and a minimum of 22° C. at night. Fully recovered plants were transferred into five inch square pots filled with synthetic soil and control released fertilizer under the same environmental conditions. […] All herbicide treatments were conducted in a DeVries Tracker Sprayer system with standard application protocols, which are well known in the art. As a spray control T0 events have been sprayed with the adjunvant mixture lacking the herbicide.
(§2) A rating of “1” was assigned to plants having a moderate tolerance with 16% to 40% damage of total leaf area. A rating of “2” was assigned to plants with good tolerance within the range of 6% to 15% damage of total leaf area.

[2] = test system: transgenic soybean T1 plants expressing PfHPPD-Evo41; assay type: in vivo; details: for number of events, herbicide tolerance class 0 (41%-100% damaged leaf area) / number of events, herbicide tolerance class 1 (16%-40% damaged leaf area) / number of events, herbicide tolerance class 2 (6%-15% damaged leaf area) / number of events, herbicide tolerance class 3 (0%-5% damaged leaf area): soybean PfHPPD-Evo41, scored after 21 days
[3] = test system: Axmi309H-Evo41 (SEQ ID No 37); experiment: HPPD activity in presence of inhibitor, HGD assay; assay type: biochemical, Pseudomonas agarici
Description: (§3) With the HGD assay HPPD activity was measured at room temperature by adding appropriate amounts of HPPD to a solution of 200 mM Tris-HCl pH 7.6, 10 mM ascorbate, 20 μM FeSO4, 650 units of catalase, 8 μg HGA dioxygenase (HGA: homogentisate) and 600 μM HPP in a total volume of 1 ml. Initial reaction rates were determined from the increase in absorbance at 318 nm due to the formation of maleylacetoacetate (ε318=11,900 M-1 cm-1).
(§4) In cases, the symbol “>” is used this means that the value was far higher than the one indicated but could not be precisely calculated within in the range of concentration of inhibitor tested.
(§5) In the 1st column of Table 1, the HPPD employed in the assay is named and in the 2nd column of Table 1, the corresponding SEQ ID No of present invention is disclosed.

Axmi309H (SEQ ID No 35) = experiment: HPPD activity in presence of inhibitor, HGD assay; assay type: biochemical, Pseudomonas agarici
Description: as §3, §4, §5

[4] = target: PfHPPD-Evo41 (SEQ ID No 29) (Pseudomonas sp., UniProt P80064, A172V/A339Q/A53E/D148E/D45N/E105D/E287Q/E300V/E334P/F143Y/G286D/G335W/H150N/H254A/H63N/I158V/I187A/I249V/K338A/K92N/L18F/N24G/N280D/S245T/S257K/S301E/T205S/V65I); experiment: biochemical; design: species or system Pseudomonas fluorescens
wild type soybean Thorne = assay type: in vivo; details: scored after 21 days
[5] = target: PfHPPD-Evo33 (SEQ ID No 25) (Pseudomonas sp., UniProt P80064, A172V/A53E/D148E/D45N/E105D/E287Q/E300V/E334P/F143Y/G286D/G335W/H150N/H254A/H63N/I158V/I187A/I249V/K92N/L18F/N24G/N280D/S245T/S257K/S301E/T205S/V65I); experiment: biochemical; design: species or system Pseudomonas fluorescens
[6] = test system: maize transgenic T0 events expressing Axmi309H-Evo41; assay type: in vivo; details: 100 g AI/ha, six days after application
Description: as §1, with “art.” for “art. As a spray control T0 events have been sprayed with the adjunvant mixture lacking the herbicide.”
as §2

[7] = test system: transgenic soybean T1 plants expressing PfHPPD-Evo40; assay type: in vivo; details: for number of events, herbicide tolerance class 0 (41%-100% damaged leaf area) / number of events, herbicide tolerance class 1 (16%-40% damaged leaf area) / number of events, herbicide tolerance class 2 (6%-15% damaged leaf area) / number of events, herbicide tolerance class 3 (0%-5% damaged leaf area): soybean PfHPPD-Evo40, scored after 21 days
[8] = 25 g AI/ha, evaluation 9 days after treatment
[9] = 50 g AI/ha, six days after application
[10] = 100 g AI/ha, six days after application
[11] = room temperature, 600 μM HPP, molar concentration
[12] = soybean Thorne (wt), 6.25 g AI/ha

Chain of PfHPPD-Evo33 (SEQ ID No 25) (P80064 1-354 with tags or gaps with the stated changes limits assumed): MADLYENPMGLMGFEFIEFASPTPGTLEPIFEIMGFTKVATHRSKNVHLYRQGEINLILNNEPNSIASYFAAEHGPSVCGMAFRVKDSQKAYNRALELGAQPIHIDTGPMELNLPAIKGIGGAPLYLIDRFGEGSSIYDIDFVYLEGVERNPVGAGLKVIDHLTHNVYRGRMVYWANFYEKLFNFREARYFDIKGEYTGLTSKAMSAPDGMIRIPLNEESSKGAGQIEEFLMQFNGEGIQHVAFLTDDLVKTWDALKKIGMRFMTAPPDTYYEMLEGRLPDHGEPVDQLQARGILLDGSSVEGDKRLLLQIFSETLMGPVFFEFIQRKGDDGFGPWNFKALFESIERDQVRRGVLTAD
Chain of PfHPPD-Evo41 (SEQ ID No 29) (P80064 1-354 with tags or gaps with the stated changes limits assumed): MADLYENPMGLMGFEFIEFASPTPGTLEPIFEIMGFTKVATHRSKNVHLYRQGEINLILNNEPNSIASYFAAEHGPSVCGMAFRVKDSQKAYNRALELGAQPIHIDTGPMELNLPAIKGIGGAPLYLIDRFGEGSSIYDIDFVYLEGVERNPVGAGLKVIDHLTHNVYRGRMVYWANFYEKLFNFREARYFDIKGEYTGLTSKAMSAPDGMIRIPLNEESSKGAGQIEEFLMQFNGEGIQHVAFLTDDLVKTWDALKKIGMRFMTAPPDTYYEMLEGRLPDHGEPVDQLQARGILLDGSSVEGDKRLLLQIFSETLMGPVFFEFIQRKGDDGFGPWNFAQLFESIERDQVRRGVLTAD

Structure (SMILES): CSc1c(C(F)(F)F)ccc(C(=O)Nc2nnnn2C)c1Cl
- bleaching symptoms ([1]; all control events, 25 g of AI/ha): severe bleaching symptoms
- leaf damage ([1]; control maize T0 events without HPPD variant, 25 g AI/ha): 100%
- number of events, herbicide tolerance class 0 (41%-100% damaged leaf area) [1, 8]: 5*
- number of events, herbicide tolerance class 1 (16%-40% damaged leaf area) [1, 8]: 0
- number of events, herbicide tolerance class 2 (6%-15% damaged leaf area) [1, 8]: 0
- number of events, herbicide tolerance class 3 (0%-5% damaged leaf area) [1, 8]: 0
- number of events, herbicide tolerance class 0 (41%-100% damaged leaf area) [1, 9]: 4
- number of events, herbicide tolerance class 1 (16%-40% damaged leaf area) [1, 9]: 0
- number of events, herbicide tolerance class 2 (6%-15% damaged leaf area) [1, 9]: 0
- number of events, herbicide tolerance class 3 (0%-5% damaged leaf area) [1, 9]: 0
- number of events, herbicide tolerance class 0 (41%-100% damaged leaf area) [1, 10]: 50
- number of events, herbicide tolerance class 1 (16%-40% damaged leaf area) [1, 10]: 0
- number of events, herbicide tolerance class 2 (6%-15% damaged leaf area) [1, 10]: 0
- number of events, herbicide tolerance class 3 (0%-5% damaged leaf area) [1, 10]: 0
- herbicide tolerance ([2]; most soybean T1 plants expressing PfHPPD-Evo41, 25 g AI/ha): high tolerance
- damaged leaf area ([2]; several soybean T1 plants expressing PfHPPD-Evo41, 50 g AI/ha): less than 5%
- number of events, herbicide tolerance class 0 (41%-100% damaged leaf area) ([2]; 6.25 g AI/ha): 0
- number of events, herbicide tolerance class 1 (16%-40% damaged leaf area) ([2]; 6.25 g AI/ha): 0
- number of events, herbicide tolerance class 2 (6%-15% damaged leaf area) ([2]; 6.25 g AI/ha): 0
- number of events, herbicide tolerance class 3 (0%-5% damaged leaf area) ([2]; 6.25 g AI/ha): 12
- number of events, herbicide tolerance class 0 (41%-100% damaged leaf area) ([2]; 25 g AI/ha): 2
- number of events, herbicide tolerance class 1 (16%-40% damaged leaf area) ([2]; 25 g AI/ha): 8
- number of events, herbicide tolerance class 2 (6%-15% damaged leaf area) ([2]; 25 g AI/ha): 1
- number of events, herbicide tolerance class 3 (0%-5% damaged leaf area) ([2]; 25 g AI/ha): 21
- number of events, herbicide tolerance class 0 (41%-100% damaged leaf area) ([2]; 50 g AI/ha): 0
- number of events, herbicide tolerance class 1 (16%-40% damaged leaf area) ([2]; 50 g AI/ha): 1
- number of events, herbicide tolerance class 2 (6%-15% damaged leaf area) ([2]; 50 g AI/ha): 0
- number of events, herbicide tolerance class 3 (0%-5% damaged leaf area) ([2]; 50 g AI/ha): 3
- number of events, herbicide tolerance class 0 (41%-100% damaged leaf area) ([2]; 75 g AI/ha): 0
- number of events, herbicide tolerance class 1 (16%-40% damaged leaf area) ([2]; 75 g AI/ha): 4
- number of events, herbicide tolerance class 2 (6%-15% damaged leaf area) ([2]; 75 g AI/ha): 0
- number of events, herbicide tolerance class 3 (0%-5% damaged leaf area) ([2]; 75 g AI/ha): 0
- % inhibition at 0.2 μM ([3]; 0.2 μM inhibitor): 26%
- pI50 [3, 11]: 6.5
- % inhibition at 0.2 μM (Axmi309H (SEQ ID No 35); 0.2 μM inhibitor): 78%
- pI50 (Axmi309H (SEQ ID No 35); [11]): 7.1
- IC50 [4]: 200 nM
- % inhibition at 0.2 μM ([4]; 0.2 μM inhibitor, HGD assay): 50%
- number of events, herbicide tolerance class 0 (41%-100% damaged leaf area) (wild type soybean Thorne; [12]): 4
- number of events, herbicide tolerance class 1 (16%-40% damaged leaf area) (wild type soybean Thorne; [12]): 0
- number of events, herbicide tolerance class 2 (6%-15% damaged leaf area) (wild type soybean Thorne; [12]): 0
- number of events, herbicide tolerance class 3 (0%-5% damaged leaf area) (wild type soybean Thorne; [12]): 0
- number of events, herbicide tolerance class 0 (41%-100% damaged leaf area) (wild type soybean Thorne; soybean Thorne, 25 g AI/ha): 4
- number of events, herbicide tolerance class 1 (16%-40% damaged leaf area) (wild type soybean Thorne; soybean Thorne, 25 g AI/ha): 0
- number of events, herbicide tolerance class 2 (6%-15% damaged leaf area) (wild type soybean Thorne; soybean Thorne, 25 g AI/ha): 0
- number of events, herbicide tolerance class 3 (0%-5% damaged leaf area) (wild type soybean Thorne; soybean Thorne, 25 g AI/ha): 0
- IC50 [5]: 251 nM
- % inhibition at 0.2 μM ([5]; 0.2 μM inhibitor, HGD assay): 39%
- number of events, herbicide tolerance class 0 (41%-100% damaged leaf area) [6]: 5
- number of events, herbicide tolerance class 1 (16%-40% damaged leaf area) [6]: 9
- number of events, herbicide tolerance class 2 (6%-15% damaged leaf area) [6]: 16
- number of events, herbicide tolerance class 3 (0%-5% damaged leaf area) [6]: 6
- herbicide tolerance ([7]; most soybean T1 plants expressing PfHPPD-Evo40, 25 g AI/ha): high tolerance
- number of events, herbicide tolerance class 0 (41%-100% damaged leaf area) ([7]; 6.25 g AI/ha): 0
- number of events, herbicide tolerance class 1 (16%-40% damaged leaf area) ([7]; 6.25 g AI/ha): 0
- number of events, herbicide tolerance class 2 (6%-15% damaged leaf area) ([7]; 6.25 g AI/ha): 0
- number of events, herbicide tolerance class 3 (0%-5% damaged leaf area) ([7]; 6.25 g AI/ha): 4
- number of events, herbicide tolerance class 0 (41%-100% damaged leaf area) ([7]; 25 g AI/ha): 2
- number of events, herbicide tolerance class 1 (16%-40% damaged leaf area) ([7]; 25 g AI/ha): 7
- number of events, herbicide tolerance class 2 (6%-15% damaged leaf area) ([7]; 25 g AI/ha): 1
- number of events, herbicide tolerance class 3 (0%-5% damaged leaf area) ([7]; 25 g AI/ha): 6
- number of events, herbicide tolerance class 0 (41%-100% damaged leaf area) ([7]; 50 g AI/ha): 0
- number of events, herbicide tolerance class 1 (16%-40% damaged leaf area) ([7]; 50 g AI/ha): 4
- number of events, herbicide tolerance class 2 (6%-15% damaged leaf area) ([7]; 50 g AI/ha): 0
- number of events, herbicide tolerance class 3 (0%-5% damaged leaf area) ([7]; 50 g AI/ha): 0
- number of events, herbicide tolerance class 0 (41%-100% damaged leaf area) ([7]; 75 g AI/ha): 0
- number of events, herbicide tolerance class 1 (16%-40% damaged leaf area) ([7]; 75 g AI/ha): 4
- number of events, herbicide tolerance class 2 (6%-15% damaged leaf area) ([7]; 75 g AI/ha): 0
- number of events, herbicide tolerance class 3 (0%-5% damaged leaf area) ([7]; 75 g AI/ha): 0
